Test results from paper PMC5321741, “Arylmethylamino steroids as antiparasitic agents” (Nature Communications, 2017).
Where two headings read alike, the source gives them in different places.

How the values were obtained:
[1] = system: P. falciparum (strain 3D7); assay: 72 h 3H-hypoxanthine incorporation assay, asexual blood stages; format: cell-based, Plasmodium falciparum; settings: 72 h 3H-hypoxanthine incorporation, asexual blood stages; read-out: Antiplasmodial activity IC50 Pf (3D7)
HUVEC = assay: antiproliferative activity on HUVEC cells; format: cell-based; settings: 72 h
Method: (§1) Compounds were tested for their antiproliferative activity on HUVEC and K-562 cells and for cytotoxicity on HeLa cells using standard protocols. K-562 (DSM ACC 10), HUVEC (ATCC CRL-1730), and HeLa (DSM ACC 57) cells were cultured as described previously. To assay the antiproliferative and cytotoxic effect, procedures were carried out as described before. In brief, for each experiment with K-562 and HeLa ∼10,000 cells were seeded per well of the 96-well microplates. For the cytotoxicity assay, the HeLa cells were preincubated for 48 h without the test substances. Cells were incubated for 72 h at 37 °C in a humidified atmosphere and 5% CO2. Suspension cultures of K-562 in microplates were analysed by an electronic cell analyzer system CASY 1 (SCHÄRFE, Reutlingen, Germany). The monolayer of the HUVEC and HeLa cells were fixed by glutaraldehyde (MERCK) and stained with a 0.05% solution of methylene blue (SERVA). After gently washing, the stain was eluted by 0.2 ml of 0.33 N HCl in the wells. The optical densities were measured at 660 nm in a microplate reader. The calculations of the different values of GI50 and CC50 were performed with the software Magellan (TECAN).

K-562 = assay: antiproliferative activity on K-562 cells; format: cell-based; settings: 72 h
Method: as §1

HeLa = assay: cytotoxicity on HeLa cells; format: cell-based; settings: 72 h
Method: as §1

P. falciparum NF54 = assay: IC50 speed assay; format: cell-based, Plasmodium falciparum; settings: Plasmodium falciparum
Method: To assess the rapidity of growth inhibition induced by the steroid compounds, the so-called IC50 speed assay[16] was conducted for compound 1o on P. falciparum NF54 (Fig. 2a,b).

[2] = molecular target: haem (FeIIIPPIX, π-π dimer); assay: spectrophotometric titration of haematin π-π dimer; format: binding; settings: absorption spectrophotometric titration, pH 7.5; read-out: Dissociation Constant KD of haematin-drug complex
haem = assay: ESI-MS collision-induced dissociation of haem adducts; format: binding; settings: 50 µM haem and 50 µM substrate
Method: Compound Molar Adduct DV50 Bottom Dissociation mass [Haem+S] (V) plateau Constant
Supplementary Table 7. ESI-MS-CID data (m/z, calculated DV50 = dissociation voltage at 50% and % bottom plateau) of the [haematin-drug]+ adducts and dissociation constants (KD, µM) of the haematin-drug complexes measured with absorption spectrophotometric titrations.
Conditions: 50 µM haem and 50 µM substrate in H2O/CH3CN (5/95) + 0.1% formic acid.
Stability responses of the haem substrate adduct were obtained via ESI-CID experiments.
Positive mode; fragmentor voltage from 20 V to 400 V with 20 V increments. […]
- 41/120 g), and complete dissolution was achieved using an ultrasonic bath. All solutions were protected from daylight to avoid any photochemical degradation. All the physiochemical measurements were carried out at 25.0(2) °C. […]
Electrospray mass spectrometric measurements stopping point
Electrospray mass spectra of the haem complexes were obtained with an Agilent Technologies 6120 quadrupole equipped with an electrospray (ESI) interface. For

[3] = system: P. falciparum (strain 3D7); settings: same methods (72 h 3H-hypoxanthine incorporation assay); read-out: IC50 on 3D7; cited from earlier work
P. falciparum strain Dd2 = system: P. falciparum strain Dd2; set-up: method as in PMID 24348249; settings: chloroquine-resistant strain Dd2; cited from earlier work
[4] = system: Bacillus subtilis JMRC:STI:10880; assay: agar diffusion inhibition zone test; format: cell-based; settings: Bacillus subtilis; 1o, 2o 1,000 µg/ml in DMSO; ciprofloxacin 5 µg/ml; solvent DMSO 12P; read-out: inhibition zone diameter, Bacillus subtilis (B1)
Method: (§2) The following organisms were tested at the Hans Knöll Institute in Jena, for their susceptibility to the compounds 1o and 2o: Bacillus subtilis JMRC:STI:10880, Staphylococcus aureus JMRC:ST:10760, Escherichia coli JMRC:ST:33699, Pseudomonas aeruginosa JMRC:ST:33772, Pseudomonas aeruginosa JMRC:ST:337721, Staphylococcus aureus JMRC:ST:33793 (multi-resistant), Enterococcus faecalis JMRC:ST:33700 (Vancomycin-resistant), Mycobacterium vaccae JMRC:STI:10670, Sporobolomyces salmonicolor (Basidiomycetes yeast) JMRC:ST:35974, Candida albicans (Ascomycetes yeast) JMRC:STI:25000, Penicillium notatum JMRC:STI:50164.
(§3) The bacteria were propagated in Mueller Hinton Broth (Oxoid)[49]. Yeast was propagated in YPD (yeast extract peptone dextrose): 1% yeast extract, 10 g; 2% peptone, 20 g; 2% agar, 20 g; 2% dextrose (glucose), 20 g; Sigma-Y1375. All bacteria and yeast suspensions were freshly made. The cultures were incubated at 37 °C for 16 h. Afterwards, the bacteria concentration from each culture was determined, and 34 ml of nutrient agar was loaded with 10^7 cells. These cultures were stored at 6-8 °C and could be used for seven days for the preparation of test plates. 34 ml of nutrient agar was liquefied and inoculated with the calculated amount of inoculum bacteria suspension at 48–50 °C, a temperature suitable for vegetative forms of bacteria. The inoculated nutrient media (34 ml each) were immediately poured into the prepared test plates (3 mm layer). With a punching device, 12 holes per test plate were punched out. For inhibiting bacterial growth, ciprofloxacin was used as a reference substance. The test substances were dissolved in distilled water, and 5 μg ml^−1 and 50 μl was added to each bacterial culture. For inhibition of fungal growth, amphotericin B served as the reference substance. The test substances were diluted to 10 μg ml^−1 in DMSO/methanol; 50 μl was added to each culture.
(§4) Configuring the test plate; volumes/punched hole: 50 μl; test solutions/test plate: 1 × 50 μl reference substance. Test plates were cultivated for 18 h at 37 °C. Analysis: Reading the inhibition zones (IZ): As IZ, the zone in which no growth can be determined with the naked eye is measured; the tiniest colonies on the edge of the inhibition zone were therefore not taken into consideration. The diameter (φ) of the IZ is measured in mm. The analysis of IZ φ is carried out internationally with the help of statistic procedures, especially regression analysis. With each test approach, the reference substance was brought along as a control; if there were deviations from allowed IZ φ, the test was repeated.
(§5) The inhibition of bacterial growth was determined using bacterial cultures grown in Müller-Hinton Bouillon, which was configured at barely visible opacity with the McFarland Standard Nr. 0.5, which indicates a bacterial density of 10^8 ml^−1. This bacterial suspension was diluted with Müller-Hinton Bouillon using 2-fold dilution series in the agar diffusion test.
(§6) Analysis: The growth in the inhibition zones around the holes containing active substances is thereby compared with the growth in the growth control (no active substance). Bacterial growth was determined according to four measurements: p=presence of colonies in the inhibition zone, P=presence of many colonies in the inhibition zone, A=indication of inhibition, F=facilitation.

[5] = system: Enterococcus faecalis JMRC:ST:33700 (Vancomycin-resistant); assay: agar diffusion inhibition zone test; format: cell-based; settings: 1o, 2o 1,000 µg/ml in DMSO; ciprofloxacin 5 µg/ml; solvent DMSO 12P
Method: as §2, §3, §4, §5, §6

[6] = system: Mycobacterium vaccae JMRC:STI:10670; assay: agar diffusion inhibition zone test; format: cell-based; settings: Mycolicibacterium vaccae; 1o, 2o 1,000 µg/ml in DMSO; ciprofloxacin 5 µg/ml; solvent DMSO 13P; read-out: inhibition zone diameter, Mycobac. vaccae (M4)
Method: as §2, §3, §4, §5, §6

[7] = system: Pseudomonas aeruginosa JMRC:ST:33772; assay: agar diffusion inhibition zone test; format: cell-based; settings: Pseudomonas aeruginosa; 1o, 2o 1,000 µg/ml in DMSO; ciprofloxacin 5 µg/ml; solvent DMSO 13P; read-out: inhibition zone diameter, Pseudomonas aeruginosa JMRC:ST:33772 (B7)
Method: as §2, §3, §4, §5, §6

[8] = system: Staphylococcus aureus JMRC:ST:10760; assay: agar diffusion inhibition zone test; format: cell-based; settings: Staphylococcus aureus; 1o, 2o 1,000 µg/ml in DMSO; ciprofloxacin 5 µg/ml; solvent DMSO 12P; read-out: inhibition zone diameter, Staphylococcus aureus (B3)
Method: as §2, §3, §4, §5, §6

[9] = system: Staphylococcus aureus JMRC:ST:33793 (multi-resistant); assay: agar diffusion inhibition zone test; format: cell-based; settings: Staphylococcus aureus, MRSA; 1o, 2o 1,000 µg/ml in DMSO; ciprofloxacin 5 µg/ml; solvent DMSO 12P; read-out: inhibition zone diameter, MRSA Staph. aureus (R9)
Method: as §2, §3, §4, §5, §6

[10] = system: P. berghei asexual stages; assay: ex vivo drug assay (luciferase), asexual stages; format: cell-based; settings: Plasmodium berghei; 24 h incubation, n=3; read-out: IC50 against P. berghei ex vivo
Method: Plates frozen at −80 °C were thawed at 37 °C. The cells were lysed at room temperature in 10 μl 1x luciferin lysis buffer (Luciferase Cell Culture Lysis 5 × reagent, Promega), and 100 μl luciferase assay substrate was added to each well (Luciferase Assay System, Promega). Luciferase activity was measured on a luminescence plate reader (Mithras LB940 luminometer, Berthold Technologies). The mean of the luciferase activity was calculated for each technical triplicate and normalized as follows: (Lucx−LucRBC)/(Lucsolvent−LucRBC) with Lucx and Lucsolvent=mean luciferase activity for parasites incubated with compound x and with solvent (DMSO for 1o and PBS for MB), respectively, and LucRBC=mean luciferase activity of non-infected red blood cells (background). IC50 values were calculated using Prism (GraphPad, log(inhibitor) versus normalized response—variable slope) in three independent experiments for the P. falciparum gametocyte assay and five for the P. berghei ex vivo drug assay.
The animal experiments described in this part were performed at the Institut de Biologie Moléculaire et Cellulaire (Strasbourg, France), using facilities and protocols adhering to national regulations of laboratory animal welfare in France. […] Parasitaemia was monitored via FACS analysis (FACSCalibur, BD Bioscience). […]

Compound CC(C)CCCC(C)C1CCC2C3CCC4CC(O)C(NCc5ccccc5O)CC4(C)C3CCC12C (stereo not shown) [13c] has an IC50 [1] of 465 nM, a GI50 (HUVEC) of 23.7 µM and a GI50 (K-562) of 17.7 µM. The CC50 (HeLa) was 85.3 µM.
CCN(CC)CCCC(C)Nc1ccnc2cc(Cl)ccc12 (stereo not shown) [chloroquine] gave an IC50 (P. falciparum NF54; NF54, 24 h, read-out: IC50 24 h) of 8.3 ± 2.1 nM, an IC50 (P. falciparum NF54; NF54, 48 h, read-out: IC50 48 h) of 7.5 ± 0.9 nM and an IC50 (P. falciparum NF54; NF54, 72 h, read-out: IC50 72 h) of 7.4 ± 1.1 nM. For the same compound, the Kd [2] was 1300 nM, the “DV50 (dissociation voltage at 50%) of haem adduct” value (haem; ESI-CID, 20 V to 400 V) was 201 V and the “Bottom plateau (adduct remaining at 400 V)” value (haem; fragmentor voltage 400 V) was 0%. The IC50 [3] was 8.6 nM and the IC50 (P. falciparum strain Dd2) was 90.2 nM.
For C[C@@H]1CC[C@H]2[C@@H](C)C(=O)O[C@@H]3O[C@@]4(C)CC[C@@H]1[C@]32OO4 [artemisinin], the IC50 [3] is given as 17.3 nM and the IC50 (P. falciparum strain Dd2) is given as 20.4 nM.
O=C(O)c1cn(C2CC2)c2cc(N3CCNCC3)c(F)cc2c1=O [Ciprofloxacin, ciprofloxacin, reference compound] showed a zone of inhibition at 5 µg/mL [4] of 31 mm, an inhibition zone diameter, VRSA Enteroc. faecalis (R10) [5] of 16 mm and a zone of inhibition at 5 µg/mL [6] of 21 mm. For the same compound, the zone of inhibition at 5 µg/mL [7] was 27 mm, the zone of inhibition at 5 µg/mL [8] was 19 mm and the zone of inhibition at 5 µg/mL [9] was 0 mm.
Compound CC(C)CCCC(C)C1CCC2C3CCC4CC(O)C(NCc5ccccc5O)CC4(C)C3CCC12C (stereo not shown) [14c] has an IC50 [1] of 208 nM, a GI50 (HUVEC) of 6.7 µM and a GI50 (K-562) of 8.2 µM. The CC50 (HeLa) was 21.8 µM.
CN(C)c1ccc2nc3ccc(=[N+](C)C)cc-3sc2c1 [methylene blue, reference compound] showed an IC50 [10] of 2.6 ± 1.2 nM.
